Assay results from US20240300980A1, “HETEROCYCLIC COMPOUNDS AS KRAS INHIBITOR, AND PREPARATION THEREFOR AND USE THEREOF IN TREATMENT” (SHANGHAI KECHOW PHARMA, INC., priority 2021, published 2024).

What follows are molecules tested on AGS cells (KRAS^G12D) (assay: Detection of cell proliferation in vitro by MTT/MTS method (cell activity experiment)). Details: AGS cells; MTT/MTS; 3 days of drug treatment; read-out: AGS IC50.
Type: cell-based
Outline: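 KRAS G12D AGS cells seeded at 1000 per well, compound added 24 h later, 0.5% final DMSO. Viability read after 3 days of treatment by MTT (solubilised in DMSO) or MTS, 4 h, absorbance 490 nm. IC50 from dose–response curves versus DMSO control.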

Row | SMILES | IC50 [nM]
1 | C#Cc1c(F)ccc2cc(O)cc(-c3ccc4c(N5C[C@H]6CC[C@@H](C5)[C@@H]6N)nc(OC[C@@]56CCCN5C[C@H](F)C6)nc4c3F)c12 [Example 128, 4-(4-((1R,5S,8R)-8-amino-3-azabicyclo [3.2.1]octan-3-yl)-8-fluoro-2-(((2R,7aS)-2-fluorotetrahydro-1H-pyrrolizin-7a(5H)-yl)methoxy)quinazolin-7-yl)-5-ethynyl-6-fluoronaphthalen-2-ol] | > 2500

Same assay, conditions: Homo sapiens, AGS, 72 h, AGS cells; MTT/MTS; 3 days of drug treatment; read-out: AGS IC50

Row | SMILES | IC50 [nM]
2 | CCC1CCCc2cc(O)cc(-c3ccc4c(NCC5(N(C)C)CCC5)nc(OC[C@@]56CCCN5C[C@H](F)C6)nc4c3F)c21 (stereo partly drawn) [Example 428, 4-(4-(((1-(dimethylamino)cyclobutyl)methyl)amino)-8-fluoro-2-(((2R,7aS)-2-fluorotetrahydro-1H-pyrrolizin-7a(5H)-yl)methoxy)quinazolin-7-yl)-5-ethyl-5,6,7,8-tetrahydronaphthalen-2-ol] | 70
3 | Oc1cc(C#Cc2ccc3c(N4C[C@H]5CC[C@@H](C4)N5)nc(OC[C@@]45CCCN4C[C@H](F)C5)nc3c2F)c2ccccc2c1 [Example 363, 4-((4-((1R,5S)-3,8-diazabicyclo[3.2.1]octan-3-yl)-8-fluoro-2-(((2R,7aS)-2-fluorotetrahydro-1H-pyrrolizin-7a(5H)-yl)methoxy)quinazolin-7-yl)ethynyl)naphthalen-2-ol] | 753
4 | C#Cc1c(F)ccc2cc(O)cc(-c3ncc4c(N5CC6CCCC(C5)N6)nc(OC[C@@]56CCCN5C[C@H](F)C6)nc4c3F)c12 [Example 43, 4-(4-(3,9-diazabicyclo [3.3.1]nonan-3-yl)-8-fluoro-2-(((2R,7aS)-2-fluorotetrahydro-1H-pyrrolizin-7a(5H)-yl)methoxy)pyrido[4,3-d]pyrimidin-7-yl)-5-ethynyl-6-fluoronaphthalen-2-ol] | 31
5 | Oc1ccc2c(C#Cc3ccc4c(N5C[C@H]6CC[C@@H](C5)N6)nc(OC[C@@]56CCCN5C[C@H](F)C6)nc4c3F)c(F)ccc2c1 [Example 367, 5-((4-((1R,5S)-3,8-diazabicyclo[3.2.1]octan-3-yl)-8-fluoro-2-(((2R,7aS)-2-fluorotetrahydro-1H-pyrrolizin-7a(5H)-yl)methoxy)quinazolin-7-yl)ethynyl)-6-fluoronaphthalen-2-ol] | 194
6 | CCc1csc2cc(O)cc(-c3ncc4c(N5C[C@H]6CC[C@@H](C5)N6)nc(OC[C@@]56CCCN5C[C@H](F)C6)nc4c3F)c12 [Example 348, 4-(4-((1R,5S)-3,8-diazabicyclo[3.2.1]octan-3-yl)-8-fluoro-2-(((2R,7aS)-2-fluorotetrahydro-1H-pyrrolizin-7a(5H)-yl)methoxy)pyrido[4,3-d]pyrimidin-7-yl)-3-ethylbenzo[b]thiophen-6-ol] | 85
7 | C#Cc1cccc2cc(O)cc(-c3ncc4c(N5CCC6(CC5)CO[C@@H](C)[C@H]6N)nc(OC[C@@]56CCCN5C[C@H](F)C6)nc4c3F)c12 [Example 56, 4-(4-((3S,4S)-4-amino-3-methyl-2-oxa-8-azaspiro[4.5]decan-8-yl)-8-fluoro-2-(((2R, 7aS)-2-fluorotetrahydro-1H-pyrrolizin-7a(5H)-yl)methoxy)pyrido[4,3-d]pyrimidin-7-yl)-5-ethynylnaphthalen-2-ol] | > 2500
8 | CSC1CCc2cc(O)cc(-c3ncc4c(N5C[C@H]6CC[C@@H](C5)N6)nc(OC[C@@]56CCCN5C[C@H](F)C6)nc4c3F)c21 (stereo partly drawn) [Example 354, 7-(4-((1R,5S)-3,8-diazabicyclo[3.2.1]octan-3-yl)-8-fluoro-2-(((2R,7aS)-2-fluorotetrahydro-1H-pyrrolizin-7a(5H)-yl)methoxy)pyrido[4,3-d]pyrimidin-7-yl)-1-(methylthio)-2,3-dihydro-1H-inden-5-ol] | 25
9 | C#Cc1c(F)ccc2cc(O)cc(-c3ncc4c(N5CCC6(CCCS6(=O)=O)CC5)nc(OC[C@@]56CCCN5C[C@H](F)C6)nc4c3F)c12 [Example 50, 8-(7-(8-ethynyl-7-fluoro-3-hydroxynaphthalen-1-yl)-8-fluoro-2-(((2R, 7aS)-2-fluorotetrahydro-1H-pyrrolizin-7a(5H)-yl)methoxy)pyrido[4,3-d]pyrimidin-4-yl)-1-thia-8-azaspiro[4.5] decane 1,1-dioxide] | > 10000
10 | Oc1cc2c(c(-c3ncc4c(N5C[C@H]6CC[C@@H](C5)N6)nc(OC[C@@]56CCCN5C[C@H](F)C6)nc4c3F)c1)C(CC(F)F)CC2 (stereo partly drawn) [Example 258, 7-(4-((1R,5S)-3,8-diazabicyclo[3.2.1]octan-3-yl)-8-fluoro-2-(((2R,7aS)-2-fluorotetrahydro-1H-pyrrolizin-7a(5H)-yl)methoxy)pyrido[4,3-d]pyrimidin-7-yl)-1-(2,2-difluoroethyl)-2,3-dihydro-1H-inden-5-ol] | > 10000
11 | C#Cc1cccc2cc(O)cc(-c3ncc4c(N5CC6CCC(C5)C6O)nc(OC[C@@]56CCCN5C[C@H](F)C6)nc4c3F)c12 (stereo partly drawn) [Example 61, (1R,5S,8R)-3-(7-(8-ethynyl-3-hydroxynaphthalen-1-yl)-8-fluoro-2-(((2R, 7aS)-2-fluorotetrahydro-1H-pyrrolizin-7a(5H)-yl)methoxy)pyrido[4,3-d]pyrimidin-4-yl)-3-azabicyclo[3.2.1] octan-8-ol] | > 2500
12 | CCc1cccc2cc(O)cc(-c3ccc4c(N5C[C@H]6CC[C@@H](C5)N6)c(C#N)c(OC[C@@]56CCCN5C[C@H](F)C6)nc4c3F)c12 [Example 181, 4-((1R,5S)-3,8-diazabicyclo[3.2.1]octan-3-yl)-7-(8-ethyl-3-hydroxynaphthalen-1-yl)-8-fluoro-2-(((2R,7aS)-2-fluorotetrahydro-1H-pyrrolizin-7a(5H)-yl)methoxy)quinoline-3-carbonitrile] | 536
13 | Oc1cccc2cccc(C#Cc3ccc4c(N5C[C@H]6CC[C@@H](C5)N6)nc(OC[C@@]56CCCN5C[C@H](F)C6)nc4c3F)c12 [Example 364, 8-((4-((1R,5S)-3,8-diazabicyclo[3.2.1]octan-3-yl)-8-fluoro-2-(((2R,7aS)-2-fluorotetrahydro-1H-pyrrolizin-7a(5H)-yl)methoxy)quinazolin-7-yl)ethynyl)naphthalen-1-ol] | 811
14 | Oc1cc(-c2ccc3c(N4C[C@H]5CC[C@@H](C4)N5)nc(OCC4(CN5CCCC5)CC4)nc3c2F)c2c(F)c(F)ccc2c1 [Example 101, 4-(4-((1R,5S)-3,8-diazabicyclo[3.2.1]octan-3-yl)-8-fluoro-2-((1-(pyrrolidin-1-ylmethyl)cyclopropyl)methoxy)quinazolin-7-yl)-5,6-difluoronaphthalen-2-ol] | 9.4
15 | C#Cc1c(F)ccc2cc(O)cc(-c3ncc4c(N5C[C@H]6CC[C@@H](C5)N6)nc(OCC56CC5CN(C)C6)nc4c3F)c12 (stereo partly drawn) [Example 76, 4-(4-((1R,5S)-3,8-diazabicyclo[3.2.1]octan-3-yl)-8-fluoro-2-((3-methyl-3-azabicyclo [3.1.0]hexan-1-yl)methoxy)pyrido[4,3-d]pyrimidin-7-yl)-5-ethynyl-6-fluoronaphthalen-2-ol] | > 2500
16 | CCc1cccc2cc(O)cc(-c3ncc4c(N5C[C@H]6CC[C@@H](C5)N6)c(C#N)c(OC[C@@]56CCCN5C[C@H](F)C6)nc4c3F)c12 [Example 190, 4-((1R,5S)-3,8-diazabicyclo[3.2.1]octan-3-yl)-7-(8-ethyl-3-hydroxynaphthalen-1-yl)-8-fluoro-2-(((2R,7aS)-2-fluorotetrahydro-1H-pyrrolizin-7a(5H)-yl)methoxy)-1,6-naphthyridine-3-carbonitrile] | 150
17 | CCC1CCc2cc(O)cc(C3=C(F)c4nc(OC[C@@]56CCCN5C[C@H](F)C6)nc(N5C[C@H]6CC[C@@H](C5)N6)c4C4=NCCN43)c21 (stereo partly drawn) [Example 408, 7-(10-((1R,5S)-3,8-diazabicyclo[3.2.1]octan-3-yl)-6-fluoro-8-(((2R,7aS)-2-fluorotetrahydro-1H-pyrrolizin-7a(5H)-yl)methoxy)-2,3-dihydroimidazo[1′,2′:1,2]pyrido[4,3-d]pyrimidin-5-yl)-1-ethyl-2,3-dihydro-1H-inden-5-ol] | 41
18 | CC1CCc2cc(O)cc(-c3ncc4c(N5C[C@H]6CC[C@@H](C5)N6)nc(OC[C@@]56CCCN5C[C@H](F)C6)nc4c3F)c21 (stereo partly drawn) [Example 223, 7-(4-((1R,5S)-3,8-diazabicyclo[3.2.1]octan-3-yl)-8-fluoro-2-(((2R,7aS)-2-fluorotetrahydro-1H-pyrrolizin-7a(5H)-yl)methoxy)pyrido[4,3-d]pyrimidin-7-yl)-1-methyl-2,3-dihydro-1H-inden-5-ol] | 14
19 | Oc1cc2c(c(-c3ccc4c(N5C[C@H]6CC[C@@H](C5)N6)nc(OC[C@@]56CCCN5C[C@H](F)C6)nc4c3F)c1)C1CC1CC2 (stereo partly drawn) [Example 295, 7-(4-((1R,5S)-3,8-diazabicyclo[3.2.1]octan-3-yl)-8-fluoro-2-(((2R,7aS)-2-fluorotetrahydro-1H-pyrrolizin-7a(5H)-yl)methoxy)quinazolin-7-yl)-1a,2,3,7b-tetrahydro-1H-cyclopropa[a]naphthalen-5-ol] | 183
20 | Oc1cc(-c2c(-c3cn[nH]c3)cc3c(N4C[C@H]5CC[C@@H](C4)N5)nc(OC[C@@]45CCCN4C[C@H](F)C5)nc3c2F)c2ccccc2c1 [Example 377, 4-(4-((1R,5S)-3,8-diazabicyclo[3.2.1]octan-3-yl)-8-fluoro-2-(((2R,7aS)-2-fluorotetrahydro-1H-pyrrolizin-7a(5H)-yl)methoxy)-6-(1H-pyrazol-4-yl)quinazolin-7-yl)naphthalen-2-ol] | 120
21 | C#Cc1c(F)ccc2cc(O)cc(-c3ncc4c(C56CCN(CC5)CC6)nc(OC[C@@]56CCCN5C[C@H](F)C6)nc4c3F)c12 [Example 71, 5-ethynyl-6-fluoro-4-(8-fluoro-2-(((2R, 7aS)-2-fluorotetrahydro-1H-pyrrolizin-7a(5H)-yl)methoxy)-4-(quinuclidin-4-yl)pyrido[4,3-d]pyrimidin-7-yl) naphthalen-2-ol] | > 2500
22 | Oc1cc(-c2ncc3c(C4C[C@H]5CC[C@@H](C4)N5)nc(OC[C@@]45CCCN4C[C@H](F)C5)nc3c2F)c2c(F)cccc2c1 (stereo partly drawn) [Example 82, 4-(4-((1R,5S)-8-azabicyclo[3.2.1]octan-3-yl)-8-fluoro-2-(((2R,7aS)-2-fluorotetrahydro-1H-pyrrolizin-7a(5H)-yl)methoxy)pyrido [4,3-d]pyrimidin-7-yl)-5-fluoronaphthalen-2-ol] | > 2500
